These results are taken from ChEMBL document CHEMBL5030536, “Subtle Chemical Changes Cross the Boundary between Agonist and Antagonist: New A3 Adenosine Receptor Homology Models and Structural Network Analysis Can Predict This Boundary” (J Med Chem, 2021).

For experiment [1], the target named is T1, Adenosine receptor A1 (Homo sapiens, UniProt P30542).
T1 sequence (P30542 whole entry): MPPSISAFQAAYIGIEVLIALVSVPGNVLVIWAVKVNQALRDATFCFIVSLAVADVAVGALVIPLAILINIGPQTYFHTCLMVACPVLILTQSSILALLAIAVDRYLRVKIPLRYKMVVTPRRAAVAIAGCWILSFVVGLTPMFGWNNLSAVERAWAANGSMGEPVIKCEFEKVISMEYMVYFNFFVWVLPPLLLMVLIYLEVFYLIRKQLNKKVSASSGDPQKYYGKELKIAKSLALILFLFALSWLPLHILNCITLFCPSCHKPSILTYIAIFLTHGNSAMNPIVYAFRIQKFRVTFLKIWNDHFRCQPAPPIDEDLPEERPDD
Kind of experiment: Displacement of [3H]R-PIA from recombinant human A1 adenosine receptor expressed in CHO cell membrane incubated for 60 mins by liquid scintillation counting method. Type of experiment: cell membranes. (In general: Loss of bound radioactivity is the signal in a displacement assay; it reports binding, not function.)

The target in experiment [2] is Adenosine receptor A2a (Homo sapiens, UniProt P29274). Kind of experiment: Displacement of [3H]CGS21680 from recombinant human A2A adenosine receptor expressed in HEK293 cells incubated for 60 mins by liquid scintillation counting method. It is filed as cell-based.
The target in experiment [3] is T2, Adenosine receptor A3 (Homo sapiens, UniProt P0DMS8).
T2 sequence (P0DMS8 whole entry): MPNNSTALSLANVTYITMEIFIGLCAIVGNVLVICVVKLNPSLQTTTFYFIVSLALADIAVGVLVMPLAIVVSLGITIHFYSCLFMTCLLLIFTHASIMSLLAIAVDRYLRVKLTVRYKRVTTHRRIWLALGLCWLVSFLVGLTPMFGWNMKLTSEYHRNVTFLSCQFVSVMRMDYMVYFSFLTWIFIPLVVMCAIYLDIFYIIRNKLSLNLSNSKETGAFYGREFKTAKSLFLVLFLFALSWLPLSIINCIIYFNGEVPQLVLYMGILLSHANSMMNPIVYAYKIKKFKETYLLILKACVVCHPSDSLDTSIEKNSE
Briefly: Displacement of [125I]AB-MECA from human A3 adenosine receptor expressed in CHO cell membrane incubated for 60 mins by gamma counter method. It is filed as cell membranes.

Adenosine receptor A2a, sequence (P29274 whole entry): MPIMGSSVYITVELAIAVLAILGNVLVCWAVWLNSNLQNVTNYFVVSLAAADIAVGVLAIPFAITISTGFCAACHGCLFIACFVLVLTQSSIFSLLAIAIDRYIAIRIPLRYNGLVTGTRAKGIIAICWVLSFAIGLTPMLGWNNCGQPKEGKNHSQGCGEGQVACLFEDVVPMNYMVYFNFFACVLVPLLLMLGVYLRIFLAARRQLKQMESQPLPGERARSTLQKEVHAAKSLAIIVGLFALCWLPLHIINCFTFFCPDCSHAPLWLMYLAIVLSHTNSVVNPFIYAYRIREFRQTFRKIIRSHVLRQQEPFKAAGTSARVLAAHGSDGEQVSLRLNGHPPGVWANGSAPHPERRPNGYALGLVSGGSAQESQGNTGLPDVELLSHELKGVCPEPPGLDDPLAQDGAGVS

In general, Ki refers to the equilibrium dissociation constant of an inhibitor or competing ligand from its target. Consider `CNc1ncnc2c1ncn2[C@@H]1SC[C@@H](N)[C@H]1O`, for which the Ki in experiment [1] was found to be 1670 nM.

As for `N[C@@H]1CS[C@@H](n2cnc3c(NCc4cccc(I)c4)nc(Cl)nc32)[C@@H]1O`, the Ki in experiment [1] was found to be 2200 nM; in experiment [2], 2390 nM; in experiment [3], 380 nM.

Turning to `N[C@@H]1CS[C@@H](n2cnc3c(NCc4cccc(I)c4)ncnc32)[C@@H]1O`, the Ki in experiment [1] came to 2450 nM; in experiment [2] it was 2300 nM; in experiment [3] it was 260 nM.
